# Values of other authors as cited in US7439256B2, “(Arylamidoaryl) cyanoguanidine compounds” (priority 2004, dated 2008).
# Counter-ions that a name gives are not always drawn.
# Test system: MO7e human leukemia cells
compound,measurement,setting,value
"Cc1ccc(NC(=O)c2ccc(CN3CCN(C)CC3)cc2)cc1Nc1nccc(-c2cccnc2)n1 [Gleevec, imatinib mesylate]",GM-CSF stimulated growth of MO7e human leukemia cells,GM-CSF stimulated,not affected
same,Kit ligand-stimulated growth of MO7e human leukemia cells,Kit ligand-stimulated,inhibited
same,apoptosis in MO7e human leukemia cells,Kit ligand-stimulated conditions,induces apoptosis
